The values that follow come from patent publication US6838453B2, “Antagonist derivatives of the vitronectin receptor” (Aventis Pharma S.A., priority 2000, dated 2005).

Each structure is given as a SMILES string. Structures can show the parent of a compound that is named as a salt.

Chain of human αvβ3 receptor (P06756 31-889 limits assumed): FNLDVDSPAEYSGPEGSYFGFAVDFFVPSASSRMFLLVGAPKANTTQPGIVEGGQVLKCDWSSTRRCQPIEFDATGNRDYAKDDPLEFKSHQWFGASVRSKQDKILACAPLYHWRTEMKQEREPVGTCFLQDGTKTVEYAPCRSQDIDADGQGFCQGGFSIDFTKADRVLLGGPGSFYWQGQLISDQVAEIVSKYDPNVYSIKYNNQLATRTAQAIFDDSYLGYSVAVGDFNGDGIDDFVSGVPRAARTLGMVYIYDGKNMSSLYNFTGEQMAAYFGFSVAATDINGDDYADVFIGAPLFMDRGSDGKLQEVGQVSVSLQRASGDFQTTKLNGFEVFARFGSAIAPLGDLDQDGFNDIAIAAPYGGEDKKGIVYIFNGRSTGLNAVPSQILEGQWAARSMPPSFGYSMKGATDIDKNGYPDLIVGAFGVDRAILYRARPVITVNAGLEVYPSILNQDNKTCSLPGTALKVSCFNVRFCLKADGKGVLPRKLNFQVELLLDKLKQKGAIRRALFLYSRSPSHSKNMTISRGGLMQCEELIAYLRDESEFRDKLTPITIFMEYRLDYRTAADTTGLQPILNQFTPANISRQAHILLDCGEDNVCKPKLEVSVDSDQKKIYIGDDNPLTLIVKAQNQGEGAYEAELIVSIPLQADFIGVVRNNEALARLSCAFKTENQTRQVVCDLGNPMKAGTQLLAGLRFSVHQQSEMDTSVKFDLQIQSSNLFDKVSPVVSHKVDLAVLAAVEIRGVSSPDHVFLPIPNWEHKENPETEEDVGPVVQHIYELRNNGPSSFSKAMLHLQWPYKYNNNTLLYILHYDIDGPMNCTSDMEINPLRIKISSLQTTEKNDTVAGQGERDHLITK
Chain of human αvβ3 receptor (P06756 891-1048 limits assumed): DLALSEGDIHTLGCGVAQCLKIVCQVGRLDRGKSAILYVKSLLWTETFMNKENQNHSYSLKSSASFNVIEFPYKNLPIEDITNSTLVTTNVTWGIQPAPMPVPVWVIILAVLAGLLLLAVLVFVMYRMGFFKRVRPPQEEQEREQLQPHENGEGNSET
Chain of human αvβ3 receptor (P05106 27-788): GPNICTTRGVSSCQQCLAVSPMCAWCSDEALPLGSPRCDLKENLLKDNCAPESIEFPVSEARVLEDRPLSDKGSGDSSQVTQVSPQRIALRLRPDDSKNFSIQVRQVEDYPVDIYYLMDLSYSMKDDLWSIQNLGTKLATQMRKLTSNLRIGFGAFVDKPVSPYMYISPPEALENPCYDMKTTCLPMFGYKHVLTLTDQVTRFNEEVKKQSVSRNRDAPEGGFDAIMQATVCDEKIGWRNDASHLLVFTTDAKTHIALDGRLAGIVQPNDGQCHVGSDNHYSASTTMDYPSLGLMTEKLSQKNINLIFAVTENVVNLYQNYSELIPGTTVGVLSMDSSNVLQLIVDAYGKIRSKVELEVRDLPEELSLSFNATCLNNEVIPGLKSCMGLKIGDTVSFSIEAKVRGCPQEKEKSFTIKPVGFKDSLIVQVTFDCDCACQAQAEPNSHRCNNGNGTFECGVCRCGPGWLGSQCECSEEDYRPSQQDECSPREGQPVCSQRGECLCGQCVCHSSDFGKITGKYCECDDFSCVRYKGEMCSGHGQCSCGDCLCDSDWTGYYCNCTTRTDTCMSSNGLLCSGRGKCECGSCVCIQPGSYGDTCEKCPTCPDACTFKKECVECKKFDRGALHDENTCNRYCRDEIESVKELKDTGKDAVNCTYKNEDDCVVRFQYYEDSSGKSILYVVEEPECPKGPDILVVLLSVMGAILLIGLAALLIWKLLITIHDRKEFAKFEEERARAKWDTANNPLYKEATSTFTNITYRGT

This experiment addresses human αvβ3 receptor (Homo sapiens, UniProt P05106+P06756). The experiment can be described thus: Kistrin/Vitronectin Receptor (αvβ3) ELISA test. The experiment is classed as binding. Particulars: Kistrin-coated plates, co-incubated 3 hours at ambient temperature, 4B12-HRP antibody, OD 450 nm, read-out: K/VnR IC50. The procedure:
Kistrin/Vitronectin Receptor (αvβ3) ELISA Test
96-well MaxiSorp planes are coated overnight at […] with 100 μl of Kistrin at 1 μg/ml (dilution in a coating buffer: carbonate 0.05 M/NaOH pH 9.6). The next day, the wells are emptied and the ligands (kistrin) are then fixed (fixing buffers: PBS containing 0.5% BSA (pH=7.4)) for 1 hour at ambient temperature with gentle agitation at 125 rpm. The wells are washed six times (washing buffer: PBS containing 0.05% of Tween 20 (pH 7.7) then the following are added per well and in this order: • 40 μl of incubation buffer • 10 μl of the dilution of the product to be tested (the products are diluted in a 50:50 mixture DMSO/Water) • 50 μl of human αvβ3 receptor (cf Pytella et al. Methods Enzymol. (1987) 144 (Dilution in incubation buffer, to be adapted according to the receptor batch and according to the ligand). The ligand, the αvβ3 receptor and the products to be studied are co-incubated for 3 hours at ambient temperature with gentle agitation at 125 rpm.
The wells are again washed six times, then incubated for 2 hours at ambient temperature with gentle agitation at 125 rpm, in the presence of 100 μl of anti-receptor antibody conjugated to a peroxidase (The 4B12-HRP antibody is diluted in an incubation buffer (50 mM TRIS pH 7.4; 0.5% BSA; 0.05% Tween 20; 1 mM MnCl2; 50 μM CaCl2; 50 μM MgCl2; 100 mM NaCl) The dilution is adapted according to the receptor batch.
The wells are then washed six times before measuring the ligand-receptor bond carried out using a peroxidase developer kit (TBM Microwell Peroxidase Substrate System Kirkegaard; Cat. Ref. 50-76-00).
This kit contains a bottle A of substrate (3,3′,5,5′-tetramethylebenzidine at 0.4 g/l) and a bottle B (H2O2 at 0.02% in a Citrate/Citric acid buffer). Extemporaneously, a volume of A is mixed with a volume of B, then the reaction mixture is distributed at a rate of 100 μl/well.
The enzymatic reaction develops between 6 and 10 minutes for Kistrin/αvβ3 then its evolution is stopped by the addition of 100 μl of 1M phosphoric acid. The optical density is determined at 450 nm.
Expression of the Results
The following curve is plotted: the bond percentage as a function of the logarithm of each concentration of the tested product.
For each product, the IC50 is determined according to the following formula: IC50=(B0+Bmin)/2 • B0=Maximum bond in the absence of any product • Bmin =Minimum bond in the presence of the highest concentration of the product.
In general terms: In an ELISA, binding on a coated surface is turned into a signal by an enzyme label.
As to `O=C(CCCOc1ccc(C[C@H](Nc2nc3cccc(F)c3o2)C(=O)O)cc1)NC1=NCCCN1` [Example 12, N-(7-fluoro-2-benzoxazolyl)-O-[4-oxo-4-[(1,4,5,6-tetrahydro-2-pyrimidinyl)amino]butyl]-L-tyrosine], the IC50 turned out to be 9 nM.
Consider `O=C(CCCOc1ccc(C[C@H](Nc2nc3cccc(Cl)c3o2)C(=O)O)cc1)NC1=NCCCN1` [Example 15, N-(7-chloro-2-benzoxazolyl)-O-[4-oxo-4-[(1,4,5,6-tetrahydro-2-pyrimidinyl)amino]butyl]-L-tyrosine trifluoroacetate], for which the IC50 was 5 nM.
For the molecule `O=C(CCCOc1ccc(C[C@H](Nc2nc3cc(C(F)(F)F)ccc3o2)C(=O)O)cc1)NC1=NCCCN1` [Example 23, O-[4-oxo-4-[(1,4,5,6-tetrahydro-2-pyrimidinyl)amino]butyl]-N-[5-(trifluoromethyl)-2-benzoxazolyl)-L-tyrosine], the IC50 turned out to be 10 nM.
For `O=C(CCCOc1ccc(C[C@H](Nc2nc3ccc(F)c(F)c3o2)C(=O)O)cc1)NC1=NCCCN1` [Example 27, N-(6,7-difluoro-2-benzoxazolyl)-O-[4-oxo-4-[(1,4,5,6-tetrahydro-2-pyrimidinyl)amino]butyl]-L-tyrosine] the value was 12 nM; for `O=C(CCCOc1ccc(C[C@H](Nc2nc3ccc(Br)cc3s2)C(=O)O)cc1)NC1=NCCCN1` [Example 8, N-(6-bromo-2-benzothiazolyl)-O-[4-oxo-4-[(1,4,5,6-tetrahydro-2-pyrimidinyl)amino]butyl]-L-tyrosine], 8 nM.
Consider `O=C(O)[C@H](Cc1ccc(OCCCc2ccc3c(n2)NCCC3)cc1)Nc1nnnn1Cc1ccccc1` [Example 1, N-[1-(phenylmethyl)-1H-tetrazol-5-yl]-O-[3-(5,6,7,8-tetrahydro-1,8-naphthyridin-2-yl)propyl]-L-tyrosine], for which the IC50 turned out to be 9 nM.
As to `O=C(CCc1ccc(C(=O)NC[C@H](Nc2nc3cc(Br)ccc3o2)C(=O)O)cc1)NC1=NCCCN1` [Example 10, N-(5-bromo-2-benzoxazolyl)-3-[[4-[3-oxo-3-[(1,4,5,6-tetrahydro-2-pyrimidinyl)amino]propyl]benzoyl]amino]-L-alanine], the IC50 was 6 nM.
Consider `O=C(CCCOc1ccc(C[C@H](Nc2nc3cc(F)ccc3o2)C(=O)O)cc1)NC1=NCCCN1` [Example 14, N-(5-fluoro-2-benzoxazolyl)-O-[4-oxo-4-[(1,4,5,6-tetrahydro-2-pyrimidinyl)amino]butyl]-L-tyrosine trifluoroacetate], for which the IC50 was 7 nM.
As for `O=C(CCCOc1ccc(C[C@H](Nc2nc3ccccc3o2)C(=O)O)cc1)NC1=NCCCN1` [Example 6, N-(2-benzoxazolyl)-O-[4-oxo-4-[(1,4,5,6-tetrahydro-2-pyrimidinyl)amino]butyl]-L-tyrosine], the IC50 was found to be 5 nM.
Regarding `O=C(CCCOc1ccc(C[C@H](Nc2nc3cc(Cl)ccc3o2)C(=O)O)cc1)NC1=NCCCN1` [Example 17, N-(5-chloro-2-benzoxazolyl)-O-[4-oxo-4-[(1,4,5,6-tetrahydro-2-pyrimidinyl)amino]butyl]-L-tyrosine], the IC50 amounted to 9 nM.
On to `O=C(CCCOc1ccc(C[C@H](Nc2nc3cc(-c4ccccc4)ccc3o2)C(=O)O)cc1)NC1=NCCCN1` [Example 21, O-[4-oxo-4-[(1,4,5,6-tetrahydro-2-pyrimidinyl)amino]butyl]-N-(5-phenyl-2-benzoxazolyl)-L-tyrosine], for which the IC50 came out at 6 nM.
As for `O=C(CCCOc1ccc(C[C@H](Nc2nc3ccccc3[nH]2)C(=O)O)cc1)NC1=NCCCN1` [Example 35, N-(1H-benzimidazol-2-yl)-O-[4-oxo-4-[(1,4,5,6-tetrahydro-2-pyrimidinyl)amino]butyl]-L-tyrosine], the figure is 18 nM; as for `O=C(CCCOc1ccc(C[C@H](Nc2nc3cc(Br)ccc3s2)C(=O)O)cc1)NC1=NCCCN1` [Example 34, N-(5-bromo-2-benzothiazolyl)-O-[4-oxo-4-[(1,4,5,6-tetrahydro-2-pyrimidinyl)amino]butyl]-L-tyrosine], 18 nM.
For `O=C(CCCOc1ccc(C[C@H](Nc2nc3c(ccc4ccccc43)o2)C(=O)O)cc1)NC1=NCCCN1` [Example 20, N-(naphth[1,2-d]oxazol-2-yl)-O-[4-oxo-4-[(1,4,5,6-tetrahydro-2-pyrimidinyl)amino]butyl]-L-tyrosine] the value was 35 nM; for `O=C(CCCOc1ccc(C[C@H](Nc2nc3cc(Br)cc(F)c3o2)C(=O)O)cc1)NC1=NCCCN1` [Example 9, N-[5-bromo-7-fluoro-2-benzoxazolyl)-O-[4-oxo-4-[(1,4,5,6-tetrahydro-2-pyrimidinyl)amino]butyl]-L-tyrosine], 9 nM; for `O=C(CCCOc1ccc(C[C@H](Nc2nc3cc(S(=O)(=O)Nc4ccccc4)ccc3o2)C(=O)O)cc1)NC1=NCCCN1` [Example 30, N-[5-[(phenylamino)sulphonyl]-2-benzoxazolyl]-O-[4-oxo-4-[(1,4,5,6-tetrahydro-2-pyrimidinyl)amino]butyl]-L-tyrosine], 7 nM.
On to `O=C(CCCOc1ccc(C[C@H](Nc2nc3cc(Br)ccc3o2)C(=O)O)cc1)NC1=NCCCN1` [Example 18, N-(5-bromo-2-benzoxazolyl)-O-[4-oxo-4-[(1,4,5,6-tetrahydro-2-pyrimidinyl)amino]butyl]-L-tyrosine trifluoroacetate], for which the IC50 is 11 nM.
Consider `O=C(CCCOc1ccc(C[C@H](Nc2nc3ccc(Cl)cc3o2)C(=O)O)cc1)NC1=NCCCN1` [Example 16, N-(6-chloro-2-benzoxazolyl)-O-[4-oxo-4-[(1,4,5,6-tetrahydro-2-pyrimidinyl)amino]butyl]-L-tyrosine], for which the IC50 was 9 nM.
On to `Cc1c(Cl)cc2nc(N[C@@H](Cc3ccc(OCCCC(=O)NC4=NCCCN4)cc3)C(=O)O)oc2c1Cl` [Example 29, N-(5,7-dichloro-6-methyl-2-benzoxazolyl)-O-[4-oxo-4-[(1,4,5,6-tetrahydro-2-pyrimidinyl)amino]butyl]-L-tyrosine], for which the IC50 was 10 nM.
As for `O=C(CCCOc1ccc(C[C@H](Nc2nc3cccc(Br)c3s2)C(=O)O)cc1)NC1=NCCCN1` [Example 33, N-(7-bromo-2-benzothiazolyl)-O-[4-oxo-4-[(1,4,5,6-tetrahydro-2-pyrimidinyl)amino]butyl]-L-tyrosine], the IC50 came out at 7 nM.
As for `O=C(CCCOc1ccc(C[C@H](Nc2nc3cc4ccccc4cc3o2)C(=O)O)cc1)NC1=NCCCN1` [Example 19, N-(naphth[2,3-d]oxazol-2-yl)-O-[4-oxo-4-[(1,4,5,6-tetrahydro-2-pyrimidinyl)amino]butyl]-L-tyrosine], the IC50 stood at 6 nM.
Turning to `CN(c1ccccc1)S(=O)(=O)c1ccc2oc(N[C@@H](Cc3ccc(OCCCC(=O)NC4=NCCCN4)cc3)C(=O)O)nc2c1` [Example 31, N-[5-[(N-methylphenylamino)sulphonyl]-2-benzoxazolyl]-O-[4-oxo-4-[(1,4,5,6-tetrahydro-2-pyrimidinyl)amino]butyl]-L-tyrosine], the IC50 came to 5 nM.
For the molecule `O=C(CCCOc1ccc(C[C@H](Nc2nc3ccccc3s2)C(=O)O)cc1)NC1=NCCCN1` [Example 7, N-(2-benzothiazolyl)-O-[4-oxo-4-[(1,4,5,6-tetrahydro-2-pyrimidinyl)amino]butyl]-L-tyrosine], the IC50 stood at 6 nM.
